Where two headings read alike, the source gives them in different places.
Assays:
seizures = assay: In vivo anticonvulsant screening (MES, scMET, minimal clonic seizure), summary in words; set-up: species or system rat, mouse; details: summary of Table 2
Procedure: (§1) Toxicity was measured using the minimal motor impairment test described below.
(§2) The MES test is a model for generalized tonic-clonic seizures. The seizures are highly reproducible and electrophysiologically consistent with human seizures. The test provides information about a compound's ability to prevent the spread of seizure when all neuronal circuits of the brain are maximally active. 60 Hz of alternating current (50 mA in mice, 150 mA in rats) is applied for 2 seconds via corneal electrodes that have been treated with an electrolyte solution containing an anesthetic (0.5% tetracaine HCl). Mice are tested at a variety of intervals after an i.p. injection of […] solution of the test compound (commonly in a 0.5% solution of methylcellulose) at 30, 100, and 300 mg/kg doses. Rats are examined after a 30 mg/kg (per os, p.o.) dose that is applied in a volume of 0.04 mL/g. An animal is considered “protected” from MES-induced seizures upon removal of the hind limb extensor component of the seizure.
The subcutaneous injection of metrazole, which is a convulsant, produces clonic seizures in laboratory animals. The scMET test is designed to identify compounds that raise the seizure threshold of an animal. Mice are pretreated with test compound at 30, 100, and 300 mg/kg doses in a similar manner to the MES test. Rats are treated with a 50 mg/kg dose (p.o.). At the previously determined TPE of the test compound, the dose of metrazole that will induce convulsions in 97% of animals (CD97: 85 mg/kg mice) is injected into the loose fold of the skin in the midline of the neck. The animals are placed in isolation cages to minimize stress and observed for the next 30 minutes for the presence or absence of seizures. An episode of clonic spasms (approximately 3-5 seconds) of the fore and/or hindlimbs, jaws or vibrissae is taken as the endpoint.
The minimal clonic seizure (6 Hz) test, like the MES test, is used to assess a compound's ability to protect against electrically-induced seizures. The minimal clonic (6 Hz) seizure test uses a lower frequency (6 Hz) and a longer duration of stimulation (3 seconds) than the MES test. Test compounds are pre-administered to mice via i.p. injection. At varying times, individual mice (four per time point) are challenged with sufficient current via corneal electrodes to elicit a psychomotor seizure in 97% of animals (32 mA for 3 second). Untreated mice will display seizure characterized by a minimal clonic phase followed by stereotyped, automatistic behaviors described originally as being similar to the aura of human patients with partial seizures. Animals not displaying this behavior are considered to be protected.

[1] = test system: metrazole-induced clonic seizures; assay: Subcutaneous Metrazole Seizure Threshold Test (scMET), mice; format: in vivo; details: Mus musculus, sc, mice
Method in brief: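 CF1 mice dosed with test compound at 30, 100 and 300 mg/kg; Sprague-Dawley rats at 50 mg/kg p.o. At compound TPE, metrazole at CD97 (85 mg/kg in mice) injected s.c. in the neck. Animals observed 30 min; endpoint is a 3-5 s clonic spasm episode.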

[2] = target: T1, cloned, human D1 receptor (Homo sapiens, UniProt P21728); assay: Radioligand competition binding assay, [3H]SCH23390
T1 construct: expressed in transfected cells
T1 sequence (P21728 whole entry): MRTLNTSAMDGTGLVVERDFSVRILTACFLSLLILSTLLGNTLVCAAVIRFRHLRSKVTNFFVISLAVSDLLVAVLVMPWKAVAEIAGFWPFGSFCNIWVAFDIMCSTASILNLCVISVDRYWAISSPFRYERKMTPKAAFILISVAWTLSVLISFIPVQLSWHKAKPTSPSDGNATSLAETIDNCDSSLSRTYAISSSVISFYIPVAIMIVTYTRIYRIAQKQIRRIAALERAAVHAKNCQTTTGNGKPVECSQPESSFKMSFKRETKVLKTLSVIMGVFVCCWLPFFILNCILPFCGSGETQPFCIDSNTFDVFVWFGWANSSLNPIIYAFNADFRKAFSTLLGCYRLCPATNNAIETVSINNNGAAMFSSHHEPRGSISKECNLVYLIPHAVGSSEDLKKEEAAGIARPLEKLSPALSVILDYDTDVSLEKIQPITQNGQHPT
Excerpt: Receptor binding profiles were provided by the National Institute of Mental Health's Psychoactive Drug Screening Program, Contract # N01 MH32004 (NIMH PDSP) The NIMH PDSP is directed by Bryan L. Roth M. D., Ph.D. at the University of North Carolina at Chapel Hill and Project Officer Jamie Driscol at NIMH, Bethesda Md., USA. Protocols for receptor-based assays by the PDSP may be found on the website: http://pdsp.med.unc.edu/pdspw/binding.php and http://pdsp.med.unc.edu/pdspw/function.php (Apr. 30, 2008).
Radioligand competition binding assays were performed as previously described (Rothman, R. B., Baumann, M. H., Savage, J. E., Rauser, L., McBride, Hufeisen, S. J., Roth B. L. Circulation (2000) 102:2836-2841) for Compounds 7 and 16. Briefly, test compounds were dissolved to 10 mM in 100% DMSO, then diluted to the desired concentrations (spanning seven orders of magnitude) in Dopamine Binding Buffer (50 mM NaCl, 50 mM HEPES, 5 mM MgCl2, 0.5 mM EDTA, pH 7.4). Diluted test and reference compounds were added to wells containing radioligand ([^3H]SCH23390, 0.3 nM final concentration) and buffer, then membrane fractions from cells stably expressing cloned, human D1 or D5 receptors were added and binding was allowed to equilibrate at room temperature for 1.5 hours. At equilibrium, reactions were filtered (using a FilterMate 96-well harvester, PerkinElmer) onto GF-A glass fiber filters (Wallac) and allowed to dry. Meltilex scintillant (Wallac) was melted onto the dry filters, and then allowed to cool. Filters were then sealed in plastic bags and counted on a Wallac TriLux microbeta counter.
Raw data (dpm) representing total radioligand binding (i.e., specific+non-specific binding) were plotted as a function of the logarithm of the molar concentration of the competitor (i.e., test or reference compound). Non-linear regression of the normalized (i.e., percent radioligand binding compared to that observed in the absence of test or reference compound) raw data is performed in Prism 4.0 (GraphPad Software) using the built-in three parameter logistic model describing ligand competition binding to radioligand-labeled sites: y=bottom+[(top−bottom)/(1+10^x−logIC50)] where bottom equals the residual radioligand binding measured in the presence of 10 μM reference compound (i.e., non-specific binding) and top equals the total radioligand binding observed in the absence of competitor. The log IC50 (i.e., the log of the ligand concentration that reduces radioligand binding by 50%) is thus estimated from the data and used to obtain the Ki by applying the Cheng-Prusoff approximation: Ki=IC50/(1+[ligand]/KD) where [ligand] equals the assay radioligand concentration and KD equals the affinity constant of the radioligand for the target receptor.

MES-induced seizures [3] = assay: Maximal Electroshock Seizure (MES) test, rats; format: in vivo; details: rat, p.o., 30 mg/kg
Procedure: as §1, §2
Male and female albino CF1 mice (18-25 g, Charles River, Portage, Mich.) and male albino Sprague-Dawley rats (275-300 g, kindling test; 100-150 g all other tests; Charles River, Raleigh, N.C.) were used as experimental animals.

[4] = test system: metrazole-induced clonic seizures; assay: Subcutaneous Metrazole Seizure Threshold Test (scMET), rats; format: in vivo; details: rat, row printed as 300, 0.4 h
MES-induced seizures [5] = assay: Maximal Electroshock Seizure (MES) test, mice; format: in vivo; details: Mus musculus, ip, mice, i.p.
Method in brief: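 Seizures were induced by a 60 Hz corneal current for 2 s (50 mA in CF1 mice, 150 mA in Sprague-Dawley rats). Mice received 30, 100 or 300 mg/kg i.p. in 0.5% methylcellulose and were tested at several intervals; rats received 30 mg/kg p.o. Protection means abolition of hind-limb tonic extension.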

Compound: CCOC(=O)C1[C@@H]2[C@@H](O)[C@@H]3O[C@H](c4ccc(OC)cc4)OC[C@H]3O[C@H]12 (stereo partly drawn) [Compound 16, ethyl (2R,4aR,5aS,6aR,7R,7aS)-7-hydroxy-2-(4-methoxyphenyl)hexahydro-4H-cyclopropa[5,6]pyrano[3,2-d][1,3]dioxine-6-carboxylate]
- anticonvulsant activity (seizures): anticonvulsant activity
- responders at 30 mg/kg ([1]; 0.4 h, read-out: scMET 30 0.4 h (animals protected/tested)): 0%
- responders at 30 mg/kg ([1]; 0.5 h, read-out: scMET 30 0.5 h (animals protected/tested)): 0%
- responders at 100 mg/kg ([1]; 0.4 h, read-out: scMET 100 0.4 h (animals protected/tested)): 0%
- responders at 100 mg/kg ([1]; 0.5 h, read-out: scMET 100 0.5 h (animals protected/tested)): 0%
- responders at 300 mg/kg ([1]; 0.4 h, read-out: scMET 300 0.4 h (animals protected/tested)): 0%
- responders at 300 mg/kg ([1]; 0.5 h, read-out: scMET 300 0.5 h (animals protected/tested)): 0%
- Ki ([2]; D1 dopamine receptor, [3H]SCH23390 0.3 nM, Cheng-Prusoff): 4.74 µM
- inhibition of the D1 dopamine receptor ([2]; radioligand competition binding): significant inhibition
- MES 30 0.5 h (animals protected/tested) (MES-induced seizures [3]; 0.5 h): 0/4
- MES 30 4 h (animals protected/tested) (MES-induced seizures [3]; 4 h): 1/4
- scMET 300 0.4 h (animals protected/tested) [4]: 0/4
- responders at 30 mg/kg (MES-induced seizures [5]; 0.5 h, read-out: MES 30 0.5 h (animals protected/tested)): 0%
- responders at 30 mg/kg (MES-induced seizures [5]; 4 h, read-out: MES 30 4 h (animals protected/tested)): 0%
- responders at 100 mg/kg (MES-induced seizures [5]; 0.5 h, read-out: MES 100 0.5 h (animals protected/tested)): 0%
- responders at 100 mg/kg (MES-induced seizures [5]; 4 h, read-out: MES 100 4 h (animals protected/tested)): 0%
- responders at 300 mg/kg (MES-induced seizures [5]; 0.5 h, read-out: MES 300 0.5 h (animals protected/tested)): 0%
- responders at 300 mg/kg (MES-induced seizures [5]; 4 h, read-out: MES 300 4 h (animals protected/tested)): 0%

Reference: patent US8222218B2, “Cyclopropanated carbohydrates” (Seton Hall University, priority 2008, dated 2012)
